Source: ChEMBL document CHEMBL6134830, “Naturally inspired chimeric quinolone derivatives to reverse bacterial drug resistance” (Eur J Med Chem, 2025)
In brackets after ≈: the same amount, converted by molar mass. Numbered stars: 1 amine (or outer) side, 2 acyl side, 3 side chain; on linkers, the order of the positions; unused ones are H or OH. Bridge positions count the residues as written; N and C are the ends. Square brackets hold non-standard residues; d marks the D form. Peptide text beside a SMILES is read from it. * marks the point of attachment. X1 = O=C(O)c1cn(C2CC2)c2cc(N3CCN(*)CC3)c(F)cc2c1=O; NH(CH2)11CH3 = CCCCCCCCCCCCN*; Suc = O=C(CCC(=O)[*:2])[*:1]; X2 = CC[C@H](C)CCCCC(=O)*; dDab = NCC[C@@H](N)C(=O)O; Dab = NCC[C@H](N)C(=O)O

Experiments:
[1] = test system: Staphylococcus aureus; test: Antimicrobial activity against Staphylococcus aureus ATCC 25923 assessed as inhibition of bacterial growth measured after 20 hrs by CLSI protocol based Muller Hinton broth assay; assay type: functional
[2] = test system: Cell membrane; test: Disruption of cell membrane in methicillin-resistant Staphylococcus aureus assessed as PI-positive bacteria at 8 times MIC measured after 30 mins by PI staining based flow cytometry analysis (reference value: 7.49 %); assay type: subcellular
[3] = test system: Enterococcus gallinarum; test: Antimicrobial activity against Enterococcus gallinarum ATCC 49573 assessed as inhibition of bacterial growth measured after 20 hrs by CLSI protocol based Muller Hinton broth assay; assay type: functional
[4] = test system: Staphylococcus aureus; test: Antimicrobial activity against Methicillin-resistant Staphylococcus aureus ATCC 43300 assessed as inhibition of bacterial growth measured after 20 hrs by CLSI protocol based Muller Hinton broth assay; assay type: functional
[5] = test system: Enterococcus faecalis; test: Antimicrobial activity against Enterococcus faecalis ATCC 19433 assessed as inhibition of bacterial growth measured after 20 hrs by CLSI protocol based Muller Hinton broth assay; assay type: functional
[6] = test system: Escherichia coli; test: Antimicrobial activity against Escherichia coli ATCC 25922 assessed as inhibition of bacterial growth measured after 20 hrs by CLSI protocol based Muller Hinton broth assay; assay type: functional
[7] = test system: Pseudomonas aeruginosa; test: Antimicrobial activity against Pseudomonas aeruginosa ATCC 27853 assessed as inhibition of bacterial growth measured after 20 hrs by CLSI protocol based Muller Hinton broth assay; assay type: functional
[8] = test system: Acinetobacter baumannii; test: Antimicrobial activity against Acinetobacter baumannii ATCC 19606 assessed as inhibition of bacterial growth measured after 20 hrs by CLSI protocol based Muller Hinton broth assay; assay type: functional
[9] = Hemolytic activity in Sprague-Dawley rat Red blood cells at 100 ug/ml incubated for 1 hrs by absorbance based analysis; assay type: toxicity, cell-based; conditions: erythrocyte, dose 100 µg/ml
[10] = test system: L929; test: Cytotoxicity against mouse L929 cells assessed as reduction in cell viability at 25 microg/mL incubated for 24 hrs by MTT assay; assay type: toxicity, cell-based; conditions: l929, 24 h, dose 25 µg/ml
[11] = Hemolytic activity in Sprague-Dawley rat Red blood cells at 200 ug/ml incubated for 1 hr by absorbance based analysis; assay type: toxicity, cell-based; conditions: erythrocyte, dose 200 µg/ml

In the case of `CCCCCCCCCNC(=O)[C@H](CCCCN)NC(=O)[C@H](CCCCN)NC(=O)c1ccc(C(=O)N2CCN(c3cc4c(cc3F)c(=O)c(C(=O)O)cn4C3CC3)CC2)cc1`, the MIC [1] was 6.25 µg/mL (≈ 7.26 µM).
For `CCCCCCCCCCCCCCCCNC(=O)[C@H](CCCCN)NC(=O)c1ccc(C(=O)N2CCN(c3cc4c(cc3F)c(=O)c(C(=O)O)cn4C3CC3)CC2)cc1`, the MIC [1] was > 100 µg/mL.
`O=C(Cc1ccc(-c2ccccc2)cc1)N[C@@H](Cc1c[nH]cn1)C(=O)N1CCN(c2cc3c(cc2F)c(=O)c(C(=O)O)cn3C2CC2)CC1` gave an MIC [1] of 6.25 µg/mL (≈ 9.43 µM).
With `O=C(CC12CC3CC(CC(C3)C1)C2)N[C@@H](Cc1c[nH]cn1)C(=O)N1CCN(c2cc3c(cc2F)c(=O)c(C(=O)O)cn3C2CC2)CC1` the MIC [1] was 6.25 µg/mL (≈ 9.69 µM).
`CCCCCCCCCCNC(=O)[C@H](CCCCN)NC(=O)[C@H](CCCCN)NC(=O)c1ccc(C(=O)N2CCN(c3cc4c(cc3F)c(=O)c(C(=O)O)cn4C3CC3)CC2)cc1` gave an MIC [1] of 6.25 µg/mL (≈ 7.14 µM).
For `N[C@@H](Cc1c[nH]cn1)C(=O)N1CCN(c2cc3c(cc2F)c(=O)c(C(=O)O)cn3C2CC2)CC1`, the MIC [1] was ≥ 12.5 µg/mL.
For `NCCCC[C@H](NC(=O)c1ccc(C(=O)N2CCN(c3cc4c(cc3F)c(=O)c(C(=O)O)cn4C3CC3)CC2)cc1)C(=O)NCc1ccccc1Cl`, the MIC [1] was 25 µg/mL (≈ 34.2 µM).
For `CCCCCCCCCCCCNC(=O)[C@H](CCCCN)NC(=O)[C@H](CCCCN)NC(=O)[C@H](CCCCN)NC(=O)CCNC(=O)CCC(=O)N1CCN(c2cc3c(cc2F)c(=O)c(C(=O)O)cn3C2CC2)CC1`, the MIC [1] was > 50 µg/mL.
`NCCCC[C@H](NC(=O)c1ccc(C(=O)N2CCN(c3cc4c(cc3F)c(=O)c(C(=O)O)cn4C3CC3)CC2)cc1)C(=O)NCc1c(F)cccc1Cl` gave an MIC [1] of 25 µg/mL (≈ 33.4 µM).
`CC(C)CCCCC(=O)N[C@@H](CCN)C(=O)N[C@H](C(=O)N[C@@H](CCN)C(=O)N[C@H]1CCNC(=O)[C@H]([C@@H](C)O)NC(=O)[C@H](CCN)NC(=O)[C@H](CCN)NC(=O)[C@H](CC(C)C)NC(=O)[C@@H](Cc2ccccc2)NC(=O)[C@@H](CCN)NC1=O)[C@@H](C)O.CC[C@H](C)CCCCC(=O)N[C@@H](CCN)C(=O)N[C@H](C(=O)N[C@@H](CCN)C(=O)N[C@H]1CCNC(=O)[C@H]([C@@H](C)O)NC(=O)[C@H](CCN)NC(=O)[C@H](CCN)NC(=O)[C@H](CC(C)C)NC(=O)[C@@H](Cc2ccccc2)NC(=O)[C@@H](CCN)NC1=O)[C@@H](C)O` (X2-[Dab]T[Dab][Dab][dDab][dF]L[Dab][Dab]T; lactam 4-C) showed an Activity [2] of 57.2%.
With `CCCCCCCCCCCC(=O)N[C@@H](CCCNC(=N)N)C(=O)N1CCN(c2cc3c(cc2F)c(=O)c(C(=O)O)cn3C2CC2)CC1` the MIC [1] was 6.25 µg/mL (≈ 9.33 µM).
`CCCCCCCCCCCCNC(=O)[C@H](CCCCN)NC(=O)[C@H](CCCCN)NC(=O)[C@H](CCCCN)NC(=O)[C@H](CO)NC(=O)CCC(=O)N1CCN(c2cc3c(cc2F)c(=O)c(C(=O)O)cn3C2CC2)CC1` ({X1-Suc}-SKKK-{NH(CH2)11CH3}) showed an MIC [1] of 6.25 µg/mL (≈ 5.84 µM), an MIC [3] of 25 µg/mL (≈ 23.4 µM) and an MIC [4] of 12.5 µg/mL (≈ 11.7 µM). The MIC [5] was 25 µg/mL (≈ 23.4 µM), the MIC [6] was 25 µg/mL (≈ 23.4 µM) and the MIC [7] was 50 µg/mL (≈ 46.7 µM). The MIC [8] was 12.5 µg/mL (≈ 11.7 µM), the Activity [9] was “Toxic” and the Activity [10] was “Toxic”.
Work on `NCCCC[C@H](NC(=O)c1ccc(C(=O)N2CCN(c3cc4c(cc3F)c(=O)c(C(=O)O)cn4C3CC3)CC2)cc1)C(=O)N[C@@H](CCCCN)C(=O)N[C@@H](CCCCN)C(=O)NCc1ccc(-c2ccccc2)cc1` yielded an MIC [1] of 1.56 µg/mL (≈ 1.52 µM), an MIC [3] of 50 µg/mL (≈ 48.6 µM) and an MIC [4] of 6.25 µg/mL (≈ 6.07 µM). It also gave an MIC [5] of 50 µg/mL (≈ 48.6 µM), an MIC [6] of 25 µg/mL (≈ 24.3 µM) and an MIC [7] of 25 µg/mL (≈ 24.3 µM). The MIC [8] was 25 µg/mL (≈ 24.3 µM) and the Activity [11] was “Non-toxic”.
For `CCCCCCCCCCCCNC(=O)[C@H](CCCCN)NC(=O)[C@H](CCCCN)NC(=O)[C@H](CCCCN)NC(=O)c1ccc(C(=O)N2CCN(c3cc4c(cc3F)c(=O)c(C(=O)O)cn4C3CC3)CC2)cc1`, the MIC [1] was 6.25 µg/mL (≈ 6.06 µM).
Compound `CCCCCCCCNC(=O)[C@H](CCCCN)NC(=O)c1ccc(C(=O)N2CCN(c3cc4c(cc3F)c(=O)c(C(=O)O)cn4C3CC3)CC2)cc1` has an MIC [1] of 12.5 µg/mL (≈ 17.4 µM).
With `CCCCCCCCCCCCNC(=O)[C@H](CCCCN)NC(=O)[C@H](CCCCN)NC(=O)[C@H](CCCCN)NC(=O)CCCCCCNC(=O)CCC(=O)N1CCN(c2cc3c(cc2F)c(=O)c(C(=O)O)cn3C2CC2)CC1` the MIC [1] was 12.5 µg/mL (≈ 11.3 µM).
For `CCCCCCCCCCCCNC(=O)[C@H](CCCCN)NC(=O)[C@H](CCCCN)NC(=O)[C@H](CCCCN)NC(=O)COCCOCCNC(=O)CCC(=O)N1CCN(c2cc3c(cc2F)c(=O)c(C(=O)O)cn3C2CC2)CC1`, the MIC [1] was 12.5 µg/mL (≈ 11.1 µM).
Work on `CCCCCCCCCCCCNC(=O)[C@H](CCCCN)NC(=O)[C@H](CCCCN)NC(=O)[C@H](CCCCN)NC(=O)CCNC(=O)CCNC(=O)CCC(=O)N1CCN(c2cc3c(cc2F)c(=O)c(C(=O)O)cn3C2CC2)CC1` yielded an MIC [1] of 6.25 µg/mL (≈ 5.55 µM).
Compound `CCCCCCCCCNC(=O)[C@H](CCCCN)NC(=O)[C@H](CCCCN)NC(=O)[C@H](CCCNC(=N)N)NC(=O)c1ccc(C(=O)N2CCN(c3cc4c(cc3F)c(=O)c(C(=O)O)cn4C3CC3)CC2)cc1` has an MIC [1] of 3.12 µg/mL (≈ 3.07 µM).
In the case of `CCCCCCCCCCCCNC(=O)[C@H](CCCCN)NC(=O)[C@H](CCCCN)NC(=O)c1ccc(C(=O)N2CCN(c3cc4c(cc3F)c(=O)c(C(=O)O)cn4C3CC3)CC2)cc1`, the MIC [1] was 25 µg/mL (≈ 27.7 µM).
